In PubChem BioAssay AID2060626 (Molecular Pharmacology Branch, DTP, NCI, 2025):

Tested on: 168753-222-R-J1-PDC complex spheroid viability
Assay: Anticancer human tumor 168753-222-R-J1-PDC patient-derived bladder carcinoma cell line growth inhibition [CLK]
Settings: for IC50: curve of first compound; for viability, T/C: stronger effect = lower value
Source text: A high-throughput screen of multi-cell type tumor spheroids was designed to identify active combinations of […] and targeted small molecules. Complex spheroids include a stromal component modeled by human endothelial cells (HUVEC) and fibroblasts modeled by human mesenchymal stem cells (MSCs). The concentration ranges selected for each drug and investigational agent were based upon clinically achievable concentrations if the clinical Cmax of the agent was known.
Compounds. The drugs and investigational agents: cirtuvivint (SM08502; NSC835563), CC-671 (NSC850746), vemurafenib (NSC761431), tapotoclax (NSC804041), sotorasib (NSC818433), adagrasib (NSC831453), MRTX-1133 (NSC836407), BAY2416964 (NSC825713), copanlisib (NSC816437), inavolisib (NSC800729), abemaciclib (NSC768073), osimertinib (NSC779217), entinostat (NSC756642), eltanexor (KPT-8602, NSC794443), venetoclax (NSC766270), ceralasertib (NSC777638), bortezomib (NSC756655), olaparib (NSC753686), talazoparib (NSC767125), alisertib (NSC759677), peposertib (NSC802822), gemcitabine (NSC613327), 5-fluorouracil (NSC19893), SN-38 (NSC673596), oxaliplatin (NSC266046), paclitaxel (NSC125973), and doxorubicin (NSC123127), were obtained from the National Cancer Institute (NCI) Developmental Therapeutics Program Chemical Repository. The FDA-approved anticancer drug set is available from the Developmental Therapeutics Program at https://dtp.cancer.gov/organization/dscb/obtaining/available plates.htm. […] The stock solutions were prepared in dimethyl sulfoxide (DMSO, Sigma-Aldrich, St. Louis, MO, cat. D2650), except for the platinum complexes which were prepared in saline (Quality Biological, Gaithersburg, MD, cat. 114-055-101), at 800-fold the tested concentration and stored at -70 degrees C prior to their use. All drugs and investigational agents were tested over a range starting from a high concentration at or near the clinical Cmax and decreasing in half-log increments. If the clinical Cmax for an agent had not been determined, the highest concentration tested was 10 microM.
Cell Culture. All cells were maintained in an incubator at 37 degrees C and 5% CO2 with 95% humidity. The PDC lines were cultured according to standard operating procedures established by the NCI PDMR. Briefly, all PDCs were thawed and cultured in Matrigel-coated flasks prepared with a working solution of 1X Ham's F-12 nutrient mix, without supplementation (Invitrogen, Waltham, MA, cat. 11765054), 100 U/mL penicillin-streptomycin (Invitrogen, cat. 15140122), and 2.5% Matrigel (Corning Inc., Corning, NY, cat. 354248) for the first three passages. The 947758-054-R-J2-PDC line was cultured in 6B/Colon 1A media, which includes advanced DMEM/F-12 (Thermo Fisher Scientific, cat. 12634028), 10 mM HEPES (Thermo Fisher Scientific, cat. 15630080), 1X GlutaMAX supplement (Thermo Fisher Scientific, cat. 35050061), 0.1 mg/mL primocin (InvivoGen, cat. ant-pm-2), 10% defined fetal bovine serum, heat inactivated (HyClone Laboratories Inc., cat. SH30070.03HI), 1.25 mM N-Acetyl-L-cysteine (Sigma-Aldrich, cat. A9165), 10 mM nicotinamide (Sigma-Aldrich, cat. N0636), 1X B-27 supplement (Thermo Fisher Scientific, cat. 17504044), 1X N-2 supplement (Thermo Fisher Scientific, cat. 17502048), and 10 microM Y-27632 dihydrochloride (Tocris Bioscience, cat. 1254). The 876862-298-R-J1-PDC was cultured in 6E media, which includes all 6B/Colon 1A media components plus 50% L-WRN conditioned media (ATCC, cat. CRL-3276), 50 ng/mL recombinant human EGF recombinant protein (hEGF; Thermo Fisher Scientific, cat. PHG0311), 10 ng/mL recombinant human fibroblast growth factor 10 (hGFG-10; PeproTech, cat. 100-26), 1 ng/mL recombinant human fibroblast growth factor 2 (hFGF-2; PeproTech, cat. 100-18B), and 1 µM prostaglandin E2 (PGE2; Tocris, cat. 2296). The 227483-062-R1-J1-PDC line was cultured in Panc media, containing all 6E components except hFGF-2, with the addition of 500 nM SB-431542 (Selleckchem, cat. S1067) and 10 nM gastrin (Tocris, cat. 3006). […]
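Further: viability measured after seven days of drug exposure.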
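Wherever viability, T/C is given: luminescence signal used as surrogate for viable cell amount; 100% = DMSO vehicle control wells.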

IC50 (second compound 0.0316 µM): 2.09 nM
IC50 (second compound 0.1 µM): 2.31 nM
IC50 (second compound 0.316 µM): 1.8 nM
IC50 (second compound 1 µM): < 0.949 nM
IC50 (second compound 3.16 µM): < 0.949 nM
IC50 (second compound 10 µM): < 0.949 nM
SMILES: CC(C)CC(NC(=O)C(Cc1ccccc1)NC(=O)c1cnccn1)B(O)O (configuration not stated) + CNC(=O)c1ccc(Nc2nc(OC3CCCC3)c3c(-c4ccc5nc(C)oc5c4)c[nH]c3n2)c(OC)c1
viability, T/C (second compound 0.0316 µM, first compound 0.000949 µM): 98.6%
viability, T/C (second compound 0.0316 µM, first compound 0.003 µM): 27.7%
viability, T/C (second compound 0.0316 µM, first compound 0.00949 µM): 3.13%
viability, T/C (second compound 0.0316 µM, first compound 0.03 µM): 0.6%
viability, T/C (second compound 0.0316 µM, first compound 0.0949 µM): 1.66%
viability, T/C (second compound 0.0316 µM, first compound 0.3 µM): 0.44%
viability, T/C (second compound 0.1 µM, first compound 0.000949 µM): 89.3%
viability, T/C (second compound 0.1 µM, first compound 0.003 µM): 38.4%
viability, T/C (second compound 0.1 µM, first compound 0.00949 µM): 1.22%
viability, T/C (second compound 0.1 µM, first compound 0.03 µM): 0.27%
viability, T/C (second compound 0.1 µM, first compound 0.0949 µM): 0.53%
viability, T/C (second compound 0.1 µM, first compound 0.3 µM): 2.04%
viability, T/C (second compound 0.316 µM, first compound 0.000949 µM): 76.4%
viability, T/C (second compound 0.316 µM, first compound 0.003 µM): 29%
viability, T/C (second compound 0.316 µM, first compound 0.00949 µM): 0.8%
viability, T/C (second compound 0.316 µM, first compound 0.03 µM): 0.28%
viability, T/C (second compound 0.316 µM, first compound 0.0949 µM): 1.74%
viability, T/C (second compound 0.316 µM, first compound 0.3 µM): 0.24%
viability, T/C (second compound 1 µM, first compound 0.000949 µM): 38.4%
viability, T/C (second compound 1 µM, first compound 0.003 µM): 26.5%
viability, T/C (second compound 1 µM, first compound 0.00949 µM): 2.8%
viability, T/C (second compound 1 µM, first compound 0.03 µM): 0.43%
viability, T/C (second compound 1 µM, first compound 0.0949 µM): 2.22%
viability, T/C (second compound 1 µM, first compound 0.3 µM): 1.45%
viability, T/C (second compound 3.16 µM, first compound 0.000949 µM): 21.6%
viability, T/C (second compound 3.16 µM, first compound 0.003 µM): 20.2%
viability, T/C (second compound 3.16 µM, first compound 0.00949 µM): 0.44%
viability, T/C (second compound 3.16 µM, first compound 0.03 µM): 0.17%
viability, T/C (second compound 3.16 µM, first compound 0.0949 µM): 0.2%
viability, T/C (second compound 3.16 µM, first compound 0.3 µM): 0.35%
viability, T/C (second compound 10 µM, first compound 0.000949 µM): 21%
viability, T/C (second compound 10 µM, first compound 0.003 µM): 18.4%
viability, T/C (second compound 10 µM, first compound 0.00949 µM): 0.38%
viability, T/C (second compound 10 µM, first compound 0.03 µM): 1.09%
viability, T/C (second compound 10 µM, first compound 0.0949 µM): 1.85%
viability, T/C (second compound 10 µM, first compound 0.3 µM): 0.25%
